As usually defined, the EC50 is the concentration needed to bring the measured effect to its halfway point.

In patent US9714231B2, “Pyrrolidine GPR40 modulators” (BRISTOL-MYERS SQUIBB COMPANY, priority 2012, dated 2017) one finds EC50 data, which are given here for 21 compounds.

The assay concerns the target human GPR40 (Homo sapiens, UniProt O14842). The assay is described as follows: FDSS-based intracellular calcium assay (Human GRP40 in vitro assay). In kind it is cell-based. More on the design: 3xFLAG; expressed in transfected cells. Particulars: cells expressing GPR40, intracellular Ca2+ response, FDSS reader; read-out: hGPR40 EC50. On the procedure:
To conduct the fluorescent imaging plate reader (FLIPR)-based calcium flux assay to measure intracellular Ca^2+ response, cells expressing GPR40 are plated on 384 well plates (BD BIOCOAT® #356697) at a density of 20,000 cells/20 μL medium per well in phenol red and serum-free DMEM (GIBCO® #21063-029) and incubated overnight. Using BD kit #s 80500-310 or -301, the cells are incubated with 20 μL per well of Hank's buffered salt solution with 1.7 mM probenecid and Fluo-3 at 37° C. for 30 min. Compounds are dissolved in DMSO and diluted to desired concentrations with assay buffer and added to the cells as 3× solution (20 μL per well). Run fluorescence/luminescence reader FDSS (Hamamatsu) to read intracellular Ca^2+ response.
A general note: Calcium flux is commonly read through the fluorescence of an indicator in the cells.

Structures are written as SMILES. Where a name gives a salt, the structure may show the parent alone.

Chain of human GPR40 (O14842 whole entry): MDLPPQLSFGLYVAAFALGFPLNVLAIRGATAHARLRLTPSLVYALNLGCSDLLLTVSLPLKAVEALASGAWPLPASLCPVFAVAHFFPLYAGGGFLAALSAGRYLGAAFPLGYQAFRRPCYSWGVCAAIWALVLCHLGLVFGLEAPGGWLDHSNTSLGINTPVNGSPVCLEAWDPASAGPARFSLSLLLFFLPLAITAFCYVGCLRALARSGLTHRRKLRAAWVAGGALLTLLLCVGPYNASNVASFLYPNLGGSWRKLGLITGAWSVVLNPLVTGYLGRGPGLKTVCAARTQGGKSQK

As for `COc1cc(N2CCC(Oc3ncc(N4C[C@H](OC)[C@@H](C)[C@@H]4CC(=O)O)cc3C(F)(F)F)C(C)C2)c(Cl)cn1` (stereo partly drawn) [Example 165, 2-((2S,3S,4R)-1-(6-(((3,4-trans)-1-(5-Chloro-2-methoxypyridin-4-yl)-3-methylpiperidin-4-yl)oxy)-5-(trifluoromethyl)pyridin-3-yl)-4-methoxy-3-methylpyrrolidin-2-yl)acetic acid], the EC50 came out at 47 nM. For the compound `COc1cc(N2CCC(Oc3ccc(N4C[C@H](OC)[C@@H](C)[C@@H]4CC(=O)O)cn3)C(C)C2)c(C2CCCC2(C)C)cn1` (single isomer, unassigned) [Example 150, Isomer 2, HCl], the EC50 was determined as 110 nM. With `CCOc1ccc(F)c(N2CCC(Oc3ccc(N4C[C@H](Oc5ccccc5Cl)C[C@@H]4CC(=O)O)cc3)CC2)c1` [Example 79, 2-((2R,4R)-4-(2-Chlorophenoxy)-1-(4-(1-(5-ethoxy-2-fluorophenyl)piperidin-4-yloxy)phenyl)pyrrolidin-2-yl)acetic acid] the figure was 740 nM; with `COc1ccc(F)c(N2CCC(Oc3ccc(N4C[C@H](OC)C[C@@H]4CC(=O)O)cc3)CC2C)c1` (single isomer, unassigned) [Example 13, Isomer 1, HCl], 710 nM; with `COc1cc(N2CCC(Oc3ccc(N4C[C@H](C(F)(F)F)C[C@@H]4CC(=O)O)c(Cl)c3)C(C)C2)c(Cl)cn1` (stereo partly drawn) [Example 135, 2-((2R,4R)-1-(2-Chloro-4-(((3,4-trans)-1-(5-chloro-2-methoxypyridin-4-yl)-3-methylpiperidin-4-yl)oxy)phenyl)-4-(trifluoromethyl)pyrrolidin-2-yl)acetic acid, HCO2H], 400 nM. The value for `COc1cccc(N2CCC(Oc3ccc(N4C[C@H](C(F)(F)F)C[C@@H]4CC(=O)O)cc3)CC2)c1` [Example 19, 2-((2R,4R)-1-(4-((1-(3-Methoxyphenyl)piperidin-4-yl)oxy)phenyl)-4-(trifluoromethyl)pyrrolidin-2-yl)acetic acid, HCl] was 680 nM; that for `COc1ccc(F)c(N2CCC(N(C)c3ccc(N4C[C@H](C(F)(F)F)C[C@@H]4CC(=O)O)cc3)CC2)c1` [Example 9, 2-((2R,4R)-1-(4-((1-(2-Fluoro-5-methoxyphenyl)piperidin-4-yl)(methyl)amino)phenyl)-4-(trifluoromethyl)pyrrolidin-2-yl)acetic acid, TFA] was 290 nM. Turning to `COc1ccc(C2CCC2)c(N2CCC(Oc3ccc(N4C[C@H](OC)C[C@@H]4CC(=O)O)cc3)CC2)c1` [Example 82, 2-((2R,4R)-1-(4-((1-(2-Cyclobutyl-5-methoxyphenyl)piperidin-4-yl)oxy)phenyl)-4-methoxypyrrolidin-2-yl)acetic acid, HCl], the EC50 was found to be 310 nM. The value for `CCOc1ccc(F)c(N2CCC(Oc3ccc(N4CC[C@@H](C)[C@@H]4CC(=O)O)cc3)CC2)c1` [Example 104, 2-((2S,3R)-1-(4-((1-(5-Ethoxy-2-fluorophenyl)piperidin-4-yl)oxy)phenyl)-3-methylpyrrolidin-2-yl)acetic acid, TFA] was 250 nM.

As to `CCOc1ccc(F)c(N2CCC(Oc3ccc(N4C[C@H](Oc5cccc(C#N)c5)C[C@@H]4CC(=O)O)cc3)CC2)c1` [Example 68, 2-((2R,4R)-4-(3-Cyanophenoxy)-1-(4-(1-(5-ethoxy-2-fluorophenyl)piperidin-4-yloxy)phenyl)pyrrolidin-2-yl)acetic acid], the concentration giving a half-maximal response (EC50) was determined as 310 nM. With `CCc1c(OC)ccc(F)c1N1CCC(Oc2ccc(N3C[C@H](OC)C[C@@H]3CC(=O)O)cc2)CC1` [Example 31, 2-((2R,4R)-1-(4-((1-(2-Ethyl-6-fluoro-3-methoxyphenyl)piperidin-4-yl)oxy)phenyl)-4-methoxypyrrolidin-2-yl)acetic acid, TFA] the figure was 1100 nM; with `CCOc1ccc(F)c(N2CCC(Oc3ccc(N4C[C@H](OC)[C@@H](C)[C@@H]4CC(=O)O)c(F)c3)CC2)c1` [Example 114, 2-((2S,3S,4R)-1-(4-((1-(5-Ethoxy-2-fluorophenyl)piperidin-4-yl)oxy)-2-fluorophenyl)-4-methoxy-3-methylpyrrolidin-2-yl)acetic acid], 320 nM; with `COc1ccc(F)c(N2CCC(Oc3ccc(N4C[C@H](C(F)(F)F)C[C@H]4CC(=O)O)cn3)CC2)c1` [Example 50, 2-((2S,4R)-1-(6-((1-(2-Fluoro-5-methoxyphenyl)piperidin-4-yl)oxy)pyridin-3-yl)-4-(trifluoromethyl)pyrrolidin-2-yl)acetic acid], 1500 nM.

For the compound `CCOc1ccc(F)c(N2CCC(Oc3ccc(N4C[C@H](OC)[C@@H](CC)[C@@H]4CC(=O)O)cc3)CC2)c1` [Example 88, 2-((2S,3S,4R)-1-(4-((1-(5-Ethoxy-2-fluorophenyl)piperidin-4-yl)oxy)phenyl)-3-ethyl-4-methoxypyrrolidin-2-yl)acetic acid, TFA], the half-maximal effective concentration (EC50) was determined as 250 nM.

As to `COc1ccc(F)c(N2CCC(Oc3ccc(N4C[C@H](C(F)(F)F)C[C@@H]4CC(=O)O)cn3)CC2)c1` [Example 49, 2-((2R,4R)-1-(6-((1-(2-Fluoro-5-methoxyphenyl)piperidin-4-yl)oxy)pyridin-3-yl)-4-(trifluoromethyl)pyrrolidin-2-yl)acetic acid], the half-maximal effective concentration (EC50) came out at 280 nM.

As to `COc1cc(N2CCC(Oc3ccc(N4C[C@@H](OC)[C@H](C)[C@H]4CC(=O)O)cc3)C(C)C2)c(Cl)cn1` (stereo partly drawn) [Example 131, 2-((2R,3R,4S)-1-(4-(((3,4-trans)-1-(5-Chloro-2-methoxypyridin-4-yl)-3-methylpiperidin-4-yl)oxy)phenyl)-4-methoxy-3-methylpyrrolidin-2-yl)acetic acid], the EC50 amounted to 4700 nM. The value for `COc1cc(N2CCC(Oc3ccc(N4C[C@H](OC)[C@@H](C)[C@@H]4CC(=O)O)cn3)CC2)c(C2=CCCC2(C)C)cn1` [Example 152, 2-((2S,3S,4R)-1-(6-((1-(5-(5,5-Dimethylcyclopent-1-en-1-yl)-2-methoxypyridin-4-yl)piperidin-4-yl)oxy)pyridin-3-yl)-4-methoxy-3-methylpyrrolidin-2-yl)acetic acid, HCl] was 68 nM; that for `COc1cc(N2CCC(Oc3ccc(N4C[C@H](C(F)(F)F)C[C@@H]4CC(=O)O)cc3)C(F)C2)c(Cl)cn1` (single isomer, unassigned) [Example 28, Isomer 2, HCl] was 210 nM; that for `CCOc1ccc(F)c(N2CCC(Oc3ccc(N4C[C@H](OC)[C@@H](C)[C@@H]4CC(=O)O)c(F)c3)C(C)C2)c1` (stereo partly drawn) [Example 113, 2-((2S,3S,4R)-1-(4-(((3,4-trans)-1-(5-Ethoxy-2-fluorophenyl)-3-methylpiperidin-4-yl)oxy)-2-fluorophenyl)-4-methoxy-3-methylpyrrolidin-2-yl)acetic acid] was 290 nM. Turning to `COc1cc(N2CCC(Oc3ccc(N4C[C@H](OC)CC4CC(=O)O)c(F)c3F)C(C)C2)c(Cl)cn1` (single isomer, unassigned) [Example 141, Isomer 2], the EC50 stood at 5600 nM.

With `COc1ccc(F)c(N2CCC(Oc3ccc(N4C[C@H](C(F)(F)F)C[C@@H]4CC(=O)O)cc3)C2)c1` (single isomer, unassigned) [Example 12, Isomer 2, HCl], the EC50 came to 5400 nM.
